# Results as given in patent publication US9334256B2, “Agents and methods for treating ischemic and other diseases” (NoNO INC., priority 2011, dated 2016).
# Molecular target: T1, TRPM7 (Mus musculus, UniProt Q923J1)
# T1 construct: expressed in transfected cells; host or cells: HEK-293 tSA (HEK-293T) cells, transient transfection with Lipofectamine 2000
# Experiment: PI uptake cell death assay in TRPM7-expressing HEK-293 cells (type of assay from Example 1)
# Assay type: cell-based, murine
# From the text: The TRPM7 channel provides a pathway for mono- and divalent cations into the cell, and is unique in that it contains a functional C-terminal α-kinase domain. […] The induction of chemical anoxia in host cells such as recombinant HEK293 cells can be used to activate TRPM7. This activation is detectable with the use measurements of cellular calcium accumulation. This is achievable with the use of a fluorescent calcium indicator. Alternatively, this activation can also be measured using radiolabelled Ca2+ (^45Ca^2+) as described previously by Sattler et al. (Sattler et al., 1998) and Aarts et al. (Aarts et al., 2003).
# Hoechst 33342 was purchased as a 10 mg/mL solution in water (Molecular Probes Inc., Eugene, Oreg.). Propidium iodide (PI) was purchased as a powder and prepared by dissolving in PBS at 1 mg/mL. PI solutions were stored at 4° C. until use. Hoechst and PI were added directly to cell culture to 5 μg/mL and 10 μg/mL respectively. Cells were incubated at room temperature or at 37° C. for 10 minutes to allow for adequate uptake, and fluorescence observed using a NIKON Eclipse TE2000 inverted microscope and TE-FM Epi-Fluorescence attachment (Nikon Canada).
# Untransfected cells or cells transfected with the TRPM7/pTracer or ΔPDZ/pTracer construct were plated onto 24-well plates, 24-hours post-transfection. Untransfected cells were plated at 0.75×10^6 cells/well and transfected cells at 1×10^6 cells/well. The plates were coated with poly-D-lysine to strengthen cell adhesion and to minimize cell loss during washes. Cells were loaded by incubation with 5 μM fluo-3 AM and 0.02% pluronic in HBSS at 37° C. for 30 minutes. Following loading, cells were washed with an aglycaemic HBSS containing, in mM: 20 N-methyl-D-glucamine (NMDG), 121 NaCl, 5 KCl, 10 HEPES acid, 10 HEPES-Na salt, 3 NaHCO3, 1 Na-pyruvate, and 1.8 CaCl2, pH adjusted to 7.4 with HCl. Calcium uptake, as assessed by fluo-3 fluorescence, was measured in response to 0, 5, 10, 15, 20, or 25 mM sodium cyanide (NaCN; Mallinckrodt Baker Inc., Phillipsburg, N.J.) dissolved in aglycaemic HBSS. A 250 mM NaCN stock was prepared in water and stored at room temperature for up to 2 weeks. Measurements of fluo-3 fluorescence were taken over a 2 hour period at 10 minutes intervals at room temperature (22-25° C.). Calcium uptake assays were performed 48 hours post-transfection.
# Cell death, as assessed by PI uptake, was examined at the end of the 2 hour calcium uptake assay. Cells were stained with 10 μg/mL PI and PI fluorescence measured using the Fluoroskan microplate reader (λ excitation=590 nm, λ emission=630 nm) and accompanying Ascent software (Thermo Electron Corp.). To obtain a reading of maximal fluorescence (Fmax), 0.5% Triton X-100 was added to each well and allowed to incubate for 20 minutes. Cell death assays were performed 48 hours post-transfection.
# Data was entered into Excel (Microsoft, Seattle, Wash.) or SigmaPlot (SPSS Inc., Chicago, Ill.) for analysis. Pooled data are presented as the mean of at least 3 separate experiments±sem. Calcium uptake is expressed as a fraction of baseline uptake: ΔFt=(Ft−Fo)/Fo where Ft is the fluorescence at time t, and Fo is the fluorescence at baseline. Cell death is expressed as a percentage of total cell death: cell death (%)=Ft/Fmax×100 where Ft is the fluorescence at time t and Fmax is the maximal fluorescence obtained by permeabilization with Triton X-100. Concentration-response curves were fit by nonlinear regression with a 4 parameter logistic curve represented by the following equation: y=min+{(max−min)/[1+(x/EC50)n]} where y is the response at concentration x, min is the minimal response, max is the maximal response, EC50 is the concentration required for half-maximal response, and n is the Hill slope. Statistical analysis of data was carried out with a two-tailed Student's t test, or a one-way analysis of variance (ANOVA) followed by post hoc pairwise multiple comparisons testing using the Holm-Sidak method, where appropriate. […]
# [1] = Table Y, commercially available compounds
# [2] = Table X, the lower the number, the more potent in protecting against cell death
# [3] = Table X, the lower the number, the more potent
# T1 sequence (Q923J1 whole entry): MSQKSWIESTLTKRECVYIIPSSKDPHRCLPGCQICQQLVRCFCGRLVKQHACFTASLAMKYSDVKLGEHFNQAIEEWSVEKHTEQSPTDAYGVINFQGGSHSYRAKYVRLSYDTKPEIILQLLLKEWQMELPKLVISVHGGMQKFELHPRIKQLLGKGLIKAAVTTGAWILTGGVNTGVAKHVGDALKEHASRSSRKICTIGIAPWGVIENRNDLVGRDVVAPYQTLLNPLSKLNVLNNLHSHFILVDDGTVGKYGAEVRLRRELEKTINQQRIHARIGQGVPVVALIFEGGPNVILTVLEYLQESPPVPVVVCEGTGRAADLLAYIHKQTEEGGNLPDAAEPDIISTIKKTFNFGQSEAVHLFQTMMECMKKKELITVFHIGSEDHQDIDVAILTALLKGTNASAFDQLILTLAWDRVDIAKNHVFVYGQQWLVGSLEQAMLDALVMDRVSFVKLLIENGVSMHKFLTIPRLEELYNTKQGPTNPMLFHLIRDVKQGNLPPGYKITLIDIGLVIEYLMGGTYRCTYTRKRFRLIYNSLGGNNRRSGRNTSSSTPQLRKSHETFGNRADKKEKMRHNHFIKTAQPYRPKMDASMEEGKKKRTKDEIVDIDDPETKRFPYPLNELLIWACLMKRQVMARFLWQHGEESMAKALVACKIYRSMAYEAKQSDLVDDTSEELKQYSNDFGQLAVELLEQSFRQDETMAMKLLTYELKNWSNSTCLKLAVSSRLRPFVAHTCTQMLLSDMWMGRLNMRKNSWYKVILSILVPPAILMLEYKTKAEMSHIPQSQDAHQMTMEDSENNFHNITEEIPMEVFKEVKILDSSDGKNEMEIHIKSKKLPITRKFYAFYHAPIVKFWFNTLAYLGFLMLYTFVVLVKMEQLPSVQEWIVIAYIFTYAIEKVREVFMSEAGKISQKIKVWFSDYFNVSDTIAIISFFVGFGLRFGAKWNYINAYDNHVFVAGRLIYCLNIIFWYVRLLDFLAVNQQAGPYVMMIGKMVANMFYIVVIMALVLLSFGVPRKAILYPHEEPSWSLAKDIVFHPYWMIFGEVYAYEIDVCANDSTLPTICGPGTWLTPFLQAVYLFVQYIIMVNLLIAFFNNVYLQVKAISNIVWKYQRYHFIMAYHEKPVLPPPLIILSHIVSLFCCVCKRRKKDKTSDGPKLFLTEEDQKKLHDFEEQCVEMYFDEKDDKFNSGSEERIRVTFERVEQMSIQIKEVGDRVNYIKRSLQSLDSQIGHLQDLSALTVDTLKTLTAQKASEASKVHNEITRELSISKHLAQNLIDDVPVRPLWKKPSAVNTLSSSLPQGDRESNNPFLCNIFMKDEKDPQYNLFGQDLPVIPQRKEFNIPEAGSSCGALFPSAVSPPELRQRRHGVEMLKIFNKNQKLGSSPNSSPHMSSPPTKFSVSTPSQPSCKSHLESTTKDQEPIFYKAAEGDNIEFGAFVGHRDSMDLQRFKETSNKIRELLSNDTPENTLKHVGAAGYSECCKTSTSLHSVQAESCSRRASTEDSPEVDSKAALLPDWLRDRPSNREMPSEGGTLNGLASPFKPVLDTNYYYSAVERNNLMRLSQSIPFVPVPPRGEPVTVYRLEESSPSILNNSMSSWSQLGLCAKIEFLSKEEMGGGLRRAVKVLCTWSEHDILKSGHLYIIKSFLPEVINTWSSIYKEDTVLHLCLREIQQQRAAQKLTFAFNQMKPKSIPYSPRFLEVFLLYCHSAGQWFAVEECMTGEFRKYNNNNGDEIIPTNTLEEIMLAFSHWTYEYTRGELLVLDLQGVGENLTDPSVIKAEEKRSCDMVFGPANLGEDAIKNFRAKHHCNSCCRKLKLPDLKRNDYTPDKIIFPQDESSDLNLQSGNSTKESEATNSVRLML
Compound,Normalized ratio of PI uptake (5 μM) [1],Normalized ratio of PI uptake (10 μM) [1],IC50 [1],Normalized ratio of PI uptake (5 μM) [2],Normalized ratio of PI uptake (10 μM) [3],IC50 (Table X)
"COc1ccc(-c2n[nH]cc2CN(C)Cc2cc3ccccc3s2)cc1F [Ambcb42783454 #13, reference compound]",0.498,0.266,4.7 µM,,,
Cc1ccc2c(c1)CCCN2C(=O)c1sc2ccccc2c1Cl [Compound 2],,,,0.179,0.018,3.27 µM
Cc1ccc2c(c1)CCCN2C(=O)c1sc2cc(F)ccc2c1Cl [Compound 7],,,,0.274,0.067,4.05 µM
Fc1ccc2c(c1)CCN=C2c1sc2ccccc2c1Cl [Compound 42],,,,0.304,0.010,3.99 µM
Fc1ccc2c(c1)CCNC2c1sc2ccccc2c1Cl (stereo not drawn) [Compound 43],,,,0.060,0.020,2.54 µM
CN1CCc2cc(F)ccc2C1c1sc2ccccc2c1Cl (stereo not drawn) [Compound 44],,,,0.336,0.070,4.25 µM
Cc1ccc2c(c1)CCCN2C(=O)c1sc2ccccc2c1F [Compound 45],,,,0.399,0.072,4.66 µM
Cc1ccc2c(c1)CCCN2C(=O)c1sc2cc(C(F)(F)F)ccc2c1Cl [Compound 46],,,,0.149,0.137,1.88 µM
COc1ccc(C)c(N(Cc2ccccn2)C(=O)c2sc3ccccc3c2Cl)c1 [Compound 52],,,,0.079,0.022,1.29 µM
Cc1ccc2c(c1)CCNC2c1sc2ccccc2c1Cl (stereo not drawn) [Compound 54],,,,0.024,0.029,1.5 µM
Cc1ccc2c(c1)CCN(C)C2c1sc2ccccc2c1Cl (stereo not drawn) [Compound 55],,,,0.147,0.059,2.14 µM
COc1cc(OC)c2c(C)c(Cc3ccccc3)c(=O)[nH]c2c1 [Compound 56],,,,0.255,0.240,0.43 µM
Cc1ccc(N(Cc2ccccn2)C(=O)c2sc3ccccc3c2Cl)c(C)c1 [Compound 57],,,,0.110,0.039,1.71 µM
O=S(=O)(Nc1sc2ccccc2c1Cl)c1ccc(F)cc1 [Compound 64],,,,0.154,0.080,2.87 µM
COc1ccc2c(Cl)c(C3=NCCc4cc(OC)c(OC)cc43)sc2c1 [Compound 67],,,,0.054,0.019,0.37 µM
COc1ccc2sc(C3=NCCc4cc(OC)c(OC)cc43)c(Cl)c2c1 [Compound 70],,,,0.035,0.013,0.47 µM
COc1ccc2c(Cl)c(C3NCCc4cc(OC)c(OC)cc43)sc2c1 (stereo not drawn) [Compound 71],,,,0.005,0.003,0.42 µM
COc1cc2c(cc1OC)C(c1sc3cc(C(F)(F)F)ccc3c1Cl)NCC2 (stereo not drawn) [Compound 72],,,,0.000,0.000,0.39 µM
COc1cc2c(cc1OC)C(c1sc3cccc(C)c3c1Cl)NCC2 (stereo not drawn) [Compound 73],,,,0.000,0.000,0.18 µM
Cc1c(Cc2cccc(Cl)c2)c(=O)oc2cc(O)cc(O)c12 [Compound 77],,,,0.071,0.003,1.99 µM
COc1cc(OC)c2c(C)c(Cc3ccc(Cl)cc3)c(=O)[nH]c2c1 [Compound 93],,,,0.071,0.041,0.21 µM
